Laboratory results reported in paper PMC11915075, “Dibenzo [a, c] phenazin-11-yl(phenyl) methanone (SBLJ23), a novel selective inhibitor targeting JAK2^V617F mutation in myeloproliferative neoplasms” (Oncology Research, 2025).

Target: JAK2 (Homo sapiens, UniProt O60674)
Test: biochemical

Sequence of JAK2 (O60674 whole entry): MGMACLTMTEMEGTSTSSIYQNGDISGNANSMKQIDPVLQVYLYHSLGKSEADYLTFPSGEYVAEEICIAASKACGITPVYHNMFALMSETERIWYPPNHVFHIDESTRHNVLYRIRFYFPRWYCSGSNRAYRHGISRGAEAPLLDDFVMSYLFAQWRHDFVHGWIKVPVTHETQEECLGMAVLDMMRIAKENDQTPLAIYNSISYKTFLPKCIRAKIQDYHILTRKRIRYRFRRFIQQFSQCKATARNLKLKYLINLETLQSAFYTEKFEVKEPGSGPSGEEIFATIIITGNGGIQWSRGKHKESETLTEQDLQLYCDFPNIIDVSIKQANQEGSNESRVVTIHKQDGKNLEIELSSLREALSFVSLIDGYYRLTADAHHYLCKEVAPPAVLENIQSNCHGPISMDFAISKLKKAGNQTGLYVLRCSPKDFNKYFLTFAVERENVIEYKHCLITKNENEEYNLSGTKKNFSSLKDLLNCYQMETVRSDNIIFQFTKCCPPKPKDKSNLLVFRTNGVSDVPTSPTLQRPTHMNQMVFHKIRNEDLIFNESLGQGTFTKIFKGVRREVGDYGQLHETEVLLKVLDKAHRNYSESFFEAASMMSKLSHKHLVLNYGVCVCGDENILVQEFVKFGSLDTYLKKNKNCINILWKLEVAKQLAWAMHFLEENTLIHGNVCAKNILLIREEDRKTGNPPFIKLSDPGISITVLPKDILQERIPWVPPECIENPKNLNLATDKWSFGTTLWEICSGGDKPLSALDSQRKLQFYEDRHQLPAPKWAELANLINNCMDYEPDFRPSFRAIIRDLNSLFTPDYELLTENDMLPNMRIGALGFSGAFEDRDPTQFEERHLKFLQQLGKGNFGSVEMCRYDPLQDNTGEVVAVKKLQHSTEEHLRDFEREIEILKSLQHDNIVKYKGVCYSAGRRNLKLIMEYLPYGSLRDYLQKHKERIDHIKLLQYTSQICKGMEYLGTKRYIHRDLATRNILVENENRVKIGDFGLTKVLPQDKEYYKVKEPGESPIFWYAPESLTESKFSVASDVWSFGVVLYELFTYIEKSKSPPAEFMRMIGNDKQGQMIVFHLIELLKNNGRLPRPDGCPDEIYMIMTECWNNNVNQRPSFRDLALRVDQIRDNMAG

**Q.** Which IC50 does the source give for `O=C(c1ccccc1)c1ccc2nc3c4ccccc4c4ccccc4c3nc2c1` [SBLJ23, Dibenzo [a, c] phenazin-11-yl(phenyl) methanone] here?
**A.** 522 nM
